# Measurements as given in patent US7985536B2, “Method for regulating NO production in an isolated organ or tissue during warm perfusion” (priority 1999, dated 2011).
# Several values for one entry are separate records, joined by “and”; a condition that tells them apart may be missing. Equal values may be shown once.
# Columns and labels:
# canine kidneys [1] = test: CoPP in the perfusate during EMS perfusion: kidney metabolism and function; details: for F.R. (vascular flow rate) / GFR (glomerular filtration rate) / MAP (mean arterial pressure) / Urinary Protein / Urine Flow / Vasc Res (vascular resistance) / 02 Cons (oxygen consumption): n = 2, mean
# canine kidneys [2] = test: as above
# Protocol: (§1) Test group (n=3) canine kidneys were excised, cannulated, flushed of blood with EMS perfusion solution and placed on EMS perfusion at 32° C.-34° C. for 6 hours with either 5, 25 or 50 uM cobalt protoporphyrin (CoPP) added to the perfusate. Metabolic and functional evaluations consisted of quantification of the ex vivo kidney function during the period of HO-1 induction. Using the EMS technology, kidneys were maintained in a metabolically active state by perfusion at near physiologic temperature. Kidneys weighing approximately 70-90 gm were procured following brain death with concomitant warm ischemia of no more than 15 minutes. The kidneys were then transitioned to EMS perfusion at 32° C. to 34° C. The kidneys were evaluated for oxidative metabolism, vascular dynamics and organ function. The organ parameters were allowed to stabilize for one hour prior to the evaluation of function. Samples from the arterial and venous lines were collected, along with the urine produced during the perfusions. PO2 measurements for the arterial and venous samples were made with a Radiometer ABL5.
# Oxygen consumption was calculated as: ml/min/gm=(PO2 artery−PO2 venous)×(flow rate).
# The vascular resistance was calculated as: vasc resis=mean arterial pressure/mean flow rate
# Creatinine was added to the perfusate as a tracer. The urine made during the EMS perfusions at 32° C. to 34° C. was collected and tested. The concentration of creatinine was measured on an IDEXX Vet Lab chemistry analyzer and the glomerular filtration rate (GFR) was calculated as: […]
# hemeoxygenase-1 (HO-1) = test: Up-regulation of hemeoxygenase-1 by CoPP during EMS perfusion; parameters: species or system canine; details: individual kidneys
# Protocol: EMS perfusion can be used to deliver a drug to an organ, section of anatomy or tissue in a targeted fashion. In addition, during any procedure the EMS supported ongoing metabolism and function can be monitored providing a mechanism to quantify the impact of the drug and any corresponding cellular response to it. For example, a compound known to cause the up-regulation of the heat-shock protein, hemeoxygenase-1 was administered to an isolated kidney being perfused in accordance with the technology of the present invention. The EMS technology provided adequate support of renal metabolism and function during ex vivo perfusion to increase expression of the hemeoxygenase-1 (HO-1) enzyme within six hours.
# as §1, with “Metabolic” for “Test group (n=3) canine kidneys were excised, cannulated, flushed of blood with EMS perfusion solution and placed on EMS perfusion at 32° C.-34° C. for 6 hours with either 5, 25 or 50 uM cobalt protoporphyrin (CoPP) added to the perfusate. Metabolic”
# kidneys [3] = test: In situ kidney perfusion during operative procedure, serum creatinine 24 hours posttreatment; type: in vivo; details: six hours in situ acellular perfusion, n = 2, L-NAME 100 uM
# Excerpt: The ability to control NOS function during in situ perfusion was observed by placement of cannulas in the aorta above the renal arteries and in the vena cava below the renal veins. In this manner, the renal vasculature could be isolated from vascular blood flow during surgical procedures repairing aortic aneurysm. The kidneys were perfused with the solution of the present invention by opening the perfusion circuit until the blood was flushed from the kidneys. The circuit was then closed and the kidneys perfused acellularly until the end of the surgical procedure and reflow of blood was restored. The cannulas were removed, the incision in the aorta and vena cava closed and blood flow reinstated. During six hours of acellular perfusion the concentration of NO3-was determined every 2 hours and the concentration of L-arginine was adjusted to control the NO flux around the set range using the method described above. Following reperfusion with vascular blood flow, the renal function was evaluated 24 hours posttreatment by determining the serum creatinine (SCR) concentration. Controls consisted of kidneys perfused without L-arginine and kidneys perfused with the addition of L-NAME (100 uM).
# isolated canine kidneys = test: Nitric oxide flux in isolated canine kidneys, 48 hour perfusion; details: for mean NO3 accumulation in the perfusion solution: following 48 hours, ion chromatograph, mean±standard deviation; for net weight gain (edema): isolated canine kidneys, L-NAME and L-NIL 100 μM added to the perfusion solution
# Protocol: Kidneys were perfused with the perfusion solution and process described above for 48 hours.
# The concentration of nitrate in the solution was determined by analysis on a Dionex DX-500 ion chromatograph using an AS-15 column and KOH eluant that varied in concentration by a programmed gradient. Alternatively, an electrode can be utilized to monitor NO flux in stream. All samples were analyzed in duplicate and were diluted by a factor of 11 and the values expressed as the mean±standard deviation for the kidneys perfused with the solution of the invention or control kidneys perfused with RPMI medium.
# canine kidneys [4] = test: Regulation of NO flux by titrating L-arginine (nitrite, electrochemical detection)
# Protocol: It is desirable to control the flux of NO in tissues, limbs and organs while they are deprived of physiologic blood flow. In certain clinical situations such as the case of septic shock it may be necessary to inhibit the production of NO. Therefore, the ability to regulate the production of NO was evaluated using the solution and process of the present invention. The production of NO was monitored using electrochemical detection using a carbon-modified anode in stream. Oxidation of NO transfers electrons from NO to the anode generating nitrosonium cation that is converted to nitrite as follows: NO→NO+→HONO→NO2^− Canine kidneys were perfused with the solution of the invention without L-arginine. The substrate L-arginine was added to the perfusion path separately to measure the ability to control NO production.
# Controls consisted of kidneys perfused with L-Name to inhibit NOS function and kidneys perfused with the solution and process of the present invention but without L-arginine.
# iNOS = details: cited from earlier work
# kidneys [5] = test: Control of NO3 production around a target during 48 hours perfusion
# Protocol: Kidneys were perfused for 48 hours and during the perfusion the kidneys were monitored every 4 hours for the concentration of NO3^− in the circulation. Alternatively, NO concentration can be evaluated by measuring NO directly using an electrode or by measurement of the decrease in concentration of the substrate such as L-arginine. […] The perfusate was exchanged at the rate of 20% v/v every 4 hours with the concentration of L-arginine varying to control the production of NO.
# human kidneys = test: Vasodilation in human kidneys perfused ex vivo, 12 hours
# Protocol: Human kidneys were perfused ex vivo in order to evaluate the continued function of NOS in the formation of a continual flux of NO. • Group 1—Kidneys perfused with the solution and process of the invention, n=2 • Group 2—Kidneys perfused with heparinized blood with the pharmacologic agent, nitroprusside added at doses of 1.0, 10.0 and 100.0 mg, n=2
# The ability to vasodilate and sustain stable perfusion pressures was determined in both groups during 12 hours of ex vivo perfusion.
# canine kidneys [6] = test: Nitrate accumulation and acetylcholine vasodilation after 30 minutes warm ischemia and 18 hours perfusion; details: One mg of acetylcholine
# canine kidneys [7] = test: Endothelial-dependent vasodilation by acetylcholine in perfused canine kidneys; details: acetylcholine 1.0 mg; kidneys perfused with the solution of the invention
# Protocol: Canine kidneys were tested for the ability to produce NO by induction with acetylcholine at a concentration of 1.0, 10.0 or 100 mg. The acetylcholine was administered to the perfusion path of kidneys using the solution and process of this invention and also in control kidneys that were perfused with RPMI medium alone.
molecule,measurement,setting,value
"C=CC1=C(C)c2cc3[n-]c(cc4nc(cc5[n-]c(cc1n2)c(C)c5CCC(=O)[O-])C(CCC(=O)[O-])=C4C)c(C)c3C=C.[Co+2].[H+].[H+] [CoPP, cobalt protoporphyrin]",F.R. (vascular flow rate),canine kidneys [1]; 5 uM CoPP,114 cc/min
same,GFR (glomerular filtration rate),canine kidneys [1]; 5 uM CoPP,7.02 mL/min
same,MAP (mean arterial pressure),canine kidneys [1]; 5 uM CoPP,47 mmHg
same,Urinary Protein,canine kidneys [1]; 5 uM CoPP,0.16 gm/dL
same,Urine Flow,canine kidneys [1]; 5 uM CoPP,6 cc/hr
same,Vasc Res (vascular resistance),canine kidneys [1]; 5 uM CoPP,0.41
same,02 Cons (oxygen consumption),"canine kidneys [1]; 5 uM CoPP, 6 hours EMS perfusion",0.18 cc/min/gm
same,02 Cons (oxygen consumption),canine kidneys [1]; 25 uM CoPP,0.23 cc/min/gm
same,F.R. (vascular flow rate),canine kidneys [1]; 25 uM CoPP,114 cc/min
same,GFR (glomerular filtration rate),canine kidneys [1]; 25 uM CoPP,2.05 mL/min
same,MAP (mean arterial pressure),canine kidneys [1]; 25 uM CoPP,47 mmHg
same,Urinary Protein,canine kidneys [1]; 25 uM CoPP,3.62 gm/dL
same,Urine Flow,canine kidneys [1]; 25 uM CoPP,2 cc/hr
same,Vasc Res (vascular resistance),canine kidneys [1]; 25 uM CoPP,0.41
same,02 Cons (oxygen consumption),canine kidneys [1]; 50 uM CoPP,0.17 cc/min/gm
same,F.R. (vascular flow rate),canine kidneys [1]; 50 uM CoPP,108 cc/min
same,GFR (glomerular filtration rate),canine kidneys [1]; 50 uM CoPP,0.6 mL/min
same,MAP (mean arterial pressure),canine kidneys [1]; 50 uM CoPP,48 mmHg
same,Urinary Protein,canine kidneys [1]; 50 uM CoPP,3.44 gm/dL
same,Urine Flow,canine kidneys [1]; 50 uM CoPP,0.5 cc/hr
same,Vasc Res (vascular resistance),canine kidneys [1]; 50 uM CoPP,0.44
same,reduction of GFR,canine kidneys [1]; CoPP increased from 5 to 25 μM,71%
same,inhibition of the GFR,canine kidneys [2]; CoPP 50 μM,91%
same,reduction of urine flow,canine kidneys [2]; CoPP increased from 5 to 25 μM,66%
same,reduction of urine flow,canine kidneys [2]; CoPP increased to 50 μM,> 90%
same,"Hemeoxygenase-1, CoPP induction during EMS perfusion",hemeoxygenase-1 (HO-1); 5 μM CoPP,9.6 IU and 13.2 IU
same,"Hemeoxygenase-1, CoPP induction during EMS perfusion",hemeoxygenase-1 (HO-1); 10 μM CoPP,16.3 IU and 13.4 IU
same,"Hemeoxygenase-1, CoPP induction during EMS perfusion",hemeoxygenase-1 (HO-1); 25 μM CoPP,16.1 IU and 16.7 IU
same,"Hemeoxygenase-1, CoPP induction during EMS perfusion",hemeoxygenase-1 (HO-1); 50 μM CoPP,15.2 IU and 14.7 IU
"COC(=O)[C@@H](N)CCCNC(=N)N[N+](=O)[O-] [L-NAME, N^6-nitro-L-arginine methyl ester]",SCr,kidneys [3],4.2 mg/dL
same,mean NO3 accumulation in the perfusion solution,isolated canine kidneys,0.16 ± 0.1 mg/L
same,net weight gain (edema),isolated canine kidneys,350%
same,NO2,"canine kidneys [4]; Control, kidneys perfused with L-Name",0.17 ± 0.3 mg/dL
CC(=N)NCCCC[C@H](N)C(=O)O.Cl [L-NIL],selectivity for iNOS in comparison to the constitutive endothelial NOS isoform,iNOS,approximately 28 fold
same,mean NO3 accumulation in the perfusion solution,isolated canine kidneys,0.51 ± 0.2 mg/L
same,net weight gain (edema),isolated canine kidneys,206%
N=C(N)NCCC[C@H](N)C(=O)O [L-arginine],NO2,"canine kidneys [4]; L-arginine 18 mg, n = 3",1.2 ± 0.1 mg/dL
same,NO2,"canine kidneys [4]; L-arginine 35 mg, n = 3",3.1 ± 0.1 mg/dL
same,NO2,"canine kidneys [4]; L-arginine 70 mg, n = 3",5.8 ± 0.3 mg/dL
same,NO2,"canine kidneys [4]; L-arginine 140 mg, n = 3",11.2 ± 0.5 mg/dL
same,NO3,"kidneys [5]; perfusion time 4 hours, target 200 ug/L/hr+/−10",203 µg/L/h
same,NO3,kidneys [5]; perfusion time 8 hours,180 µg/L/h
same,NO3,kidneys [5]; perfusion time 12 hours,205 µg/L/h
same,NO3,kidneys [5]; perfusion time 16 hours,195 µg/L/h
same,NO3,kidneys [5]; perfusion time 20 hours,201 µg/L/h
same,NO3,kidneys [5]; perfusion time 24 hours,210 µg/L/h
same,NO3,kidneys [5]; perfusion time 28 hours,195 µg/L/h
same,NO3,kidneys [5]; perfusion time 32 hours,202 µg/L/h
same,NO3,kidneys [5]; perfusion time 36 hours,210 µg/L/h
same,NO3,kidneys [5]; perfusion time 40 hours,190 µg/L/h
same,NO3,kidneys [5]; perfusion time 44 hours,203 µg/L/h
same,NO3,kidneys [5]; perfusion time 48 hours,209 µg/L/h
CC(=O)OCC[N+](C)(C)C [acetylcholine],decreased perfusion pressure,"human kidneys; acetylcholine 1.0 mg, Group 1",8 mmHg
same,vascular flow rate after vasodilation,"human kidneys; acetylcholine 1.0 mg, Group 1",> 150 cc/min
same,time to decrease in mean arterial pressure,canine kidneys [6]; Group 1,≤ 5 min
same,decrease in mean arterial pressure,"canine kidneys [6]; Group 1, perfusion with the solution of the invention",10 mmHg
same,mean drop in systolic pressures,canine kidneys [7],20 mmHg
same,time to vasodilation after administration,canine kidneys [7],≤ 5 min
C[C@@H]1C[C@H]2[C@@H]3CCC4=CC(=O)C=C[C@]4(C)[C@@]3(F)[C@@H](O)C[C@]2(C)[C@@]1(O)C(=O)CO [dexamethasone],mean NO3 accumulation in the perfusion solution,isolated canine kidneys,0.18 ± 0.1 mg/L
nitroprusside,decrease in the mean arterial pressures,"human kidneys; nitroprusside 1.0 mg, heparinized blood perfusion",did not lead to an appreciable decrease
same,decrease in the mean arterial pressures,"human kidneys; nitroprusside 10.0 mg, heparinized blood perfusion",6 mmHg
same,decrease in the mean arterial pressures,"human kidneys; nitroprusside 100 mg, excessive vascular flow associated with renal damage",profound decrease
